# According to patent US10799484B2, “Compositions and methods for treating synucleinopathies” (priority 2017, dated 2020):
# Read-outs that look alike come from different tables or passages of the source.
# Legend:
# humans = conditions: for MTD-1 (Pramipexole alone): Period 1
# Description: The ability of the 5HT3-antagonists to prevent the gastro-intestinal (GI) adverse effects (AEs) of pramipexole in humans was tested.
# A Phase I study was conducted in subjects receiving a single oral dose of pramipexole dihydrochloride monohydrate (“pramipexole”) with or without a single oral dose of ondansetron hydrochloride dihydrate (“ondansetron”). The study was single center, single-blind study.
# Following enrollment in the study, participants received single increasing oral doses of pramipexole given once daily in the morning (Period 1 of the study). The starting dose of pramipexole was 0.5 mg and the dose was increased daily by 0.5 mg increments. Once a subject had reached his/her first intolerable dose (FID-1), upward dose escalation was discontinued.
# When a subject reached FID-1 on pramipexole alone, the subject was washed out for at least 5 days, and then entered Period 2 of the study during which the subject received single daily oral doses of pramipexole starting at 0.5 mg and titrated upward by 0.5 mg increments, together with oral ondansetron hydrochloride dihydrate (10 mg, equivalent to 8 mg ondansetron base) until subjects again reached an intolerable dose defined as above. The FID on oral pramipexole plus oral ondansetron was referred to as FID-2.
# If a subject reached FID-2 during Period 2 at the same or lower dose than FID-1, and providing the investigator judged there were no safety issues and the subject was consenting, the subject received the same dose of pramipexole as the FID-2 dose together with a higher dose of oral ondansetron hydrochloride dihydrate (20 mg, equivalent to 16 mg ondansetron base) on the next day and the protocol specified that said subject should continue with the remainder of the dose titration with the higher dose of oral ondansetron hydrochloride dihydrate (20 mg, equivalent to 16 mg ondansetron base) until they reach the intolerable dose (FID2+). All other provisions of the protocol remained unchanged. Assessments were the same as those planned for the dose escalation day.
# On each study day, subjects were followed up for up to 8 hours following drug administration for AEs, vital signs, ECGs. In addition, a laboratory panel was taken at screening and at the end of the study.
# patients = conditions: 5 mg/day, cited from earlier work
# [1] = target: synuclein oligomer formation (Homo sapiens, UniProt P37840); conditions: in vitro; cited from earlier work
# [2] = tested on: dopaminergic neurons in a mouse PD model; conditions: cited from earlier work
# [3] = target: human wild-type alpha-synuclein (Homo sapiens, UniProt P37840); conditions: in vitro; by H2O2 plus cytochrome c; cited from earlier work
# [4] = tested on: human neuroblastoma SH-SY5Y cells; conditions: cited from earlier work
# PD patients = conditions: doses approved for motor symptoms of PD; 535 PD patients; cited from earlier work
smiles,measurement,setting,value
"CCCN[C@H]1CCc2nc(N)sc2C1 [Pramipexole, (S)-6-propylamino-4,5,6,7-tetrahydro-1,3-benzothiazole-2-amine]",dose limiting toxicity,humans; in vivo,gastro-intestinal adverse events
same,MTD-1 (Pramipexole alone),humans; subject 1001,2.0 mg
same,MTD-1 (Pramipexole alone),humans; subject 1005,1.5 mg
same,MTD-1 (Pramipexole alone),"humans; subject 1006, cell wraps: NA (not tolerated at 0.5 mg), the starting dose",NA (not tolerated at
same,MTD-1 (Pramipexole alone),humans; subject 1007,4.0 mg
same,MTD-1 (Pramipexole alone),humans; subject 1008,1.0 mg
same,patients with nausea,patients,76%
same,patients with vomiting,patients,39%
same,patients not able to complete the study,patients; presumably because of intolerable GI adverse events,36%
same,synuclein oligomer formation,[1],diminishes
same,toxic effects of rotenone on dopaminergic neurons,[2],inhibits
same,immunoreactivity for alpha-synuclein,[2]; rotenone,reducing
same,oligomerization of human wild-type alpha-synuclein,[3],decreases
same,aggregation of alpha-synuclein,[4],inhibit
same,neuroprotective (disease modifying) activity,PD patients,failed to evidence
